The test deals with μ-opioid receptor (Homo sapiens (Human), UniProt P35372). Nature of the test: μ-opioid receptor [35S]GTPγS functional assay, HEK-293 cells (Table 6). Type of test: biochemical. As to conditions: for Emax: relative to DAMGO; for EC50: μ GTP. As to the method: μ-Opioid Receptor Functional Assay Procedures: [^35S]GTPγS functional assays were conducted using freshly thawed μ-receptor membranes prepared in-house from a cell line expressing recombinant μ opioid receptor in a HEK-293, CHO or U-2 OS cell background, or purchased from a commercial source (Perkin Elmer, Shelton, Conn.; or DiscovRx, Fremont, Calif.). Assay reactions were prepared by sequentially adding the following reagents to binding buffer (100 mM NaCl, 10 mM MgCl2, 20 mM HEPES, pH 7.4) on ice (final concentrations indicated): membrane protein (0.026 mg/mL), saponin ([…]), GDP ([…]) and [^35S]GTPγS (0.20 nM; Perkin Elmer, Shelton, Conn.). The prepared membrane solution (190 μl/well) was transferred to 96-shallow well polypropylene plates containing 10 μl of 20× concentrated stock solutions of the agonist [D-Ala^2, N-methyl-Phe^4 Gly-ol^5]-enkephalin (DAMGO) prepared in dimethyl sulfoxide (DMSO). Plates were incubated for 30 min at about 25° C. with shaking Reactions were terminated by rapid filtration onto 96-well Unifilter GF/B filter plates (Perkin Elmer, Shelton, Conn.) using a 96-well tissue harvester (Perkin Elmer, Shelton, Conn.) followed by three filtration washes with 200 μl of ice-cold wash buffer (10 mM NaH2PO4, 10 mM Na2HPO4, pH 7.4). Filter plates were subsequently dried at 50° C. for 2-3 hours. BetaScint scintillation cocktail (Perkin Elmer, Shelton, Conn.) was added (50 μl/well) and plates were counted using a Packard Top-Count for 1 min/well. Data were analyzed using the sigmoidal dose-response curve fitting functions in GraphPad PRISM v. 3.0, or an in-house function for non-linear, sigmoidal dose-response curve-fitting. [^35S]GTPγS functional assays can also be conducted using freshly thawed μ-receptor membranes prepared from a cell line expressing recombinant μ opioid receptor in a CHO-K1 cell background.
μ GTP Emax (%) is the maximal effect elicited by a compound relative to the effect elicited by DAMGO, a standard μ agonist. Generally, the μ GTP Emax (%) value measures the efficacy of a compound to treat or prevent pain or other Conditions.
The following TABLE 6 provides results on the activity response of certain Compounds of the Invention at the μ- and κ-opioid receptors determined as described above using HEK-293 cells.
(GTPγS resists hydrolysis and so accumulates on activated G proteins.)

For orientation: Emax means the size of the effect at its maximum, as opposed to the concentration needed. As usually defined, the EC50 is the concentration needed to bring the measured effect to its halfway point. As for `O=S(=O)(N[C@@H]1C[C@]23CCN(CC4CC4)[C@H](Cc4ccc(O)cc42)[C@]3(O)C1)c1ccccc1` [Compound 95, N-((2R,3aS,4R,9bR)-12-(cyclopropyl-methyl)-3a,8-dihydroxy-1,2,3,3a,4,5-hexahydro-4,9b-(epiminoethano)-cyclopenta[a]naphthalen-2-yl)benzene-sulfonamide], the Emax amounted to 1%. Moreover, for the setting “bound given in μM”, the EC50 was above 20 µM.

Take `O=C([C@H]1C[C@]23CCN(CC4CC4)[C@H](Cc4ccc(O)cc42)[C@]3(O)C1)N1CCN(c2ccccc2)CC1` [Compound 96, ((2S,3aS,4R,9bS)-12-(cyclopropylmethyl)-3a,8-dihydroxy-1,2,3,3a,4,5-hexahydro-4,9b-(epiminoethano)cyclopenta-[a]naphthalen-2-yl)(4-phenylpiperazin-1-yl)methanone]: the Emax was 14.2 ± 2.5% and the EC50 is 0.0144 ± 0.00255 µM.

Consider `Cc1ccc(CNC(=O)[C@H]2C[C@]34CCN(C)[C@H](Cc5ccc(O)cc53)[C@]4(O)C2)cc1` [Compound 97, (2S,3aS,4R,9bS)-3a,8-dihydroxy-12-methyl-N-(4-methylbenzyl)-1,2,3,3a,4,5-hexahydro-4,9b-(epiminoethano)cyclo-penta[a]naphthalene-2-carboxamide], for which the Emax came out at 90.3 ± 0.88% and a half-maximal effect (EC50) was put at 0.0281 ± 0.00154 µM.

For `CN1CC[C@]23C[C@@H](C(=O)NCc4ccc(O)cc4O)C[C@@]2(O)[C@H]1Cc1ccc(O)cc13` [Compound 98, (2R,3aS,4R,9bS)-N-(2,4-dihydroxy-benzyl)-3a,8-dihydroxy-12-methyl-1,2,3,3a,4,5-hexahydro-4,9b-(epiminoethano)cyclopenta[a]naphthalene-2-carboxamide], the Emax stood at 26.7 ± 0.67% and a half-maximal response (EC50) required 1.29 ± 0.223 µM.

With `CN1CC[C@]23C[C@@H](C(=O)NCc4ccc(Cl)c(Cl)c4)C[C@@]2(O)[C@H]1Cc1ccc(O)cc13` [Compound 99, (2R,3aS,4R,9bS)-N-(3,4-dichlorobenzyl)-3a,8-dihydroxy-12-methyl-1,2,3,3a,4,5-hexahydro-4,9b-(epiminoethano)-cyclopenta[a]naphthalene-2-carboxamide], the Emax came out at 73.3 ± 1.2% and the EC50 was determined as 0.244 ± 0.0295 µM.

Turning to `CN1CC[C@]23C[C@@H](C(=O)NCCc4ccccc4)C[C@@]2(O)[C@H]1Cc1ccc(O)cc13` [Compound 100, (2R,3aS,4R,9bS)-3a,8-dihydroxy-12-methyl-N-phenethyl-1,2,3,3a,4,5-hexahydro-4,9b-(epiminoethano)cyclo-penta[a]naphthalene-2-carboxamide], the Emax turned out to be 50.3 ± 0.33% and the EC50 turned out to be 1.1 ± 0.188 µM.

As to `CN1CC[C@]23C[C@H](C(=O)NCc4ccc(Cl)c(Cl)c4)C[C@@]2(O)[C@H]1Cc1ccc(O)cc13` [Compound 101, (2S,3aS,4R,9bS)-N-(3,4-dichlorobenzyl)-3a,8-dihydroxy-12-methyl-1,2,3,3a,4,5-hexahydro-4,9b-(epiminoethano)cyclo-penta[a]naphthalene-2-carboxamide], the Emax is 96.7 ± 2.19% and the response was half-maximal at 0.00158 ± 0.00022 µM (EC50).

Take `CC(C)CNC(=O)[C@H]1C[C@]23CCN(C)[C@H](Cc4ccc(O)cc42)[C@]3(O)C1` [Compound 102, (2S,3aS,4R,9bS)-3a,8-dihydroxy-N-isobutyl-12-methyl-1,2,3,3a,4,5-hexahydro-4,9b-(epiminoethano)cyclo-penta[a]naphthalene-2-carboxamide]: the Emax was determined as 49.5 ± 4.94% and the EC50 worked out at 0.655 ± 0.128 µM.

As for `CN1CC[C@]23C[C@@H](C(=O)NCc4ccc(Cl)cc4Cl)C[C@@]2(O)[C@H]1Cc1ccc(O)cc13` [Compound 103, (2R,3aS,4R,9bS)-N-(2,4-dichlorobenzyl)-3a,8-dihydroxy-12-methyl-1,2,3,3a,4,5-hexahydro-4,9b-(epiminoethano)cyclo-penta[a]naphthalene-2-carboxamide], the Emax came to 68 ± 9.54% and the EC50 was 0.389 ± 0.0733 µM.

Turning to `Cc1ccc(CNC(=O)[C@@H]2C[C@]34CCN(C)[C@H](Cc5ccc(O)cc53)[C@]4(O)C2)cc1` [Compound 104, (2R,3aS,4R,9bS)-3a,8-dihydroxy-12-methyl-N-(4-methylbenzyl)-1,2,3,3a,4,5-hexahydro-4,9b-(epiminoethano)cyclo-penta[a]naphthalene-2-carboxamide], the Emax amounted to 52 ± 3.51% and the EC50 was found to be 2.93 ± 1.08 µM.

Regarding `CN1CC[C@]23C[C@H](C(=O)NCc4ccc(Cl)cc4Cl)C[C@@]2(O)[C@H]1Cc1ccc(O)cc13` [Compound 107, (2S,3aS,4R,9bS)-N-(2,4-dichlorobenzyl)-3a,8-dihydroxy-12-methyl-1,2,3,3a,4,5-hexahydro-4,9b-(epiminoethano)cyclo-penta[a]naphthalene-2-carboxamide], the Emax is 94.7 ± 0.33% and the EC50 was 0.0108 ± 0.00083 µM.

As to `CN1CC[C@]23C[C@H](NC(=O)c4ccccc4)C[C@@]2(O)[C@H]1Cc1ccc(O)cc13` [Compound 109, N-((2S,3aS,4R,9bR)-3a,8-dihydroxy-12-methyl-1,2,3,3a,4,5-hexahydro-4,9b-(epiminoethano)cyclopenta[a]naphthalen-2-yl)benzamide], the Emax was 70.4 ± 0.98% and the EC50 was 0.0804 ± 0.0141 µM.

As to `CN1CC[C@]23C[C@@H](NC(=O)c4ccccc4)C[C@@]2(O)[C@H]1Cc1ccc(O)cc13` [Compound 110, N-((2R,3aS,4R,9bR)-3a,8-dihydroxy-12-methyl-1,2,3,3a,4,5-hexahydro-4,9b-(epiminoethano)cyclopenta[a]naphthalen-2-yl)benzamide], the Emax came out at 35.2 ± 0.76% and a half-maximal effect (EC50) was put at 8.41 ± 0.956 µM.

Take `CN1CC[C@]23C[C@@H](C(=O)N4CCOCC4)C[C@@]2(O)[C@H]1Cc1ccc(O)cc13` [Compound 111, ((2R,3aS,4R,9bS)-3a,8-dihydroxy-12-methyl-1,2,3,3a,4,5-hexahydro-4,9b-(epiminoethano)cyclopenta[a]naphthalen-2-yl)(morpholino)methanone]: the Emax was determined as 35.1 ± 1.06% and it took 3.17 ± 0.493 µM to reach a half-maximal effect (EC50).

On to `CN1CC[C@]23C[C@@H](C(=O)NCCN4CCOCC4)C[C@@]2(O)[C@H]1Cc1ccc(O)cc13` [Compound 112, (2R,3aS,4R,9bS)-3a,8-dihydroxy-12-methyl-N-(2-morpholinoethyl)-1,2,3,3a,4,5-hexahydro-4,9b-(epimino-ethano)cyclopenta[a]naphthalene-2-carboxamide], for which the Emax was determined as 38.8 ± 1.54% and the EC50 stood at 10.2 ± 0.241 µM.

As to `CN(C)CCN(C)C(=O)[C@@H]1C[C@]23CCN(C)[C@H](Cc4ccc(O)cc42)[C@]3(O)C1` [Compound 113, (2R,3aS,4R,9bS)-N-(2-(dimethylamino)-ethyl)-3a,8-dihydroxy-N,12-dimethyl-1,2,3,3a,4,5-hexahydro-4,9b-(epimino-ethano)cyclopenta[a]naphthalene-2-carboxamide], the Emax was -1%. The EC50 (bound given in μM) was above 20 µM.

For the compound `CN1CC[C@]23C[C@@H](C(=O)NCCO)C[C@@]2(O)[C@H]1Cc1ccc(O)cc13` [Compound 114, (2R,3aS,4R,9bS)-3a,8-dihydroxy-N-(2-hydroxyethyl)-12-methyl-1,2,3,3a,4,5-hexahydro-4,9b-(epiminoethano)cyclo-penta[a]naphthalene-2-carboxamide], the Emax turned out to be 23 ± 1.54% and the EC50 turned out to be 8.44 ± 1.54 µM.

Regarding `CN1CC[C@]23C[C@H](C(=O)NCCO)C[C@@]2(O)[C@H]1Cc1ccc(O)cc13` [Compound 115, (2S,3aS,4R,9bS)-3a,8-dihydroxy-N-(2-hydroxyethyl)-12-methyl-1,2,3,3a,4,5-hexahydro-4,9b-(epiminoethano)cyclo-penta[a]naphthalene-2-carboxamide], the Emax is 35 ± 1.14% and the EC50 came to 0.917 ± 0.131 µM.

As for `Cc1ccc(CNC(=O)[C@H]2C[C@]34CCN(CC5CC5)[C@H](Cc5ccc(C(N)=O)cc53)[C@]4(O)C2)cc1` [Compound 116, (2S,3aS,4R,9bS)-12-(cyclopropylmethyl)-3a-hydroxy-N^2-(4-methylbenzyl)-1,2,3,3a,4,5-hexahydro-4,9b-(epimino-ethano)cyclopenta[a]naphthalene-2,8-dicarboxamide], the Emax was determined as 23.6 ± 1.05% and a half-maximal effect (EC50) was put at 0.00345 ± 0.00016 µM.

As to `Cc1ccc(CNC(=O)[C@@H]2C[C@]34CCN(CC5CC5)[C@H](Cc5ccc(C(N)=O)cc53)[C@]4(O)C2)cc1` [Compound 117, (2R,3aS,4R,9bS)-12-(cyclopropylmethyl)-3a-hydroxy-N^2-(4-methylbenzyl)-1,2,3,3a,4,5-hexahydro-4,9b-(epimino-ethano)cyclopenta[a]naphthalene-2,8-dicarboxamide], the Emax is -1.21 ± 0.21%. The compound further showed an EC50 (bound given in μM) above 20 µM.

The values are drawn from patent US9656962B2, “Ring-contracted morphinans and the use thereof” (Purdue Pharma L.P., priority 2013, dated 2017).
